The text below walks through data of publication PMC7948455, “Novel drug discovery platform for spinocerebellar ataxia, using fluorescence technology targeting β-III-spectrin” (The Journal of Biological Chemistry, 2020).

Values joined by “and” are separate entries in the source; they are usually repeats but may differ in a detail not shown here. Identical values can stand only once. Bounds are passed on as bounds.

Series [1] concerns the target T1, binding of the mutant β-III-spectrin L253P ABD to F-actin (Homo sapiens, UniProt O15020, L253P).
T1 construct: the β-III-spectrin (human) ABD residues 1 to 284; expressed in transfected cells; host or cells: HEK293-6E (pTT5 vector, transient transfection)
Nature of the series: Primary live-cell FRET assay (GFP-ABD-L253P + Lifeact-mCherry) in HEK293-6E cells. Conditions: for Effect of Hit compound on primary FRET: LOPAC Hits (10 μM screen, 4SD threshold, 120 min) and dose response. In kind it is cell-based. As for the experimental part:
To develop a biosensor that monitors the binding of mutant L253P β-III-spectrin to actin filaments in live cells, a FRET approach was tested. A FRET donor construct consisting of green fluorescent protein fused to the N terminus of the mutant ABD (GFP-ABD-L253P) was coexpressed in HEK293-EBNA1-6E (HEK293-6E) cells with a FRET acceptor construct consisting of the actin-binding peptide, Lifeact, fused to the N terminus of red fluorescent protein, mCherry (Lifeact-mCherry). Lifeact is a 17 amino acid peptide derived from the yeast actin-binding protein, ABP140 ([15]). […] The cryo-EM structures of ABD L253P and Lifeact on actin indicate that the binding sites overlap on actin units. With ABD L253P and Lifeact bound on neighboring actin units, we predicted an average distance of ∼80 Å between GFP and mCherry (Fig. 1). With a known Förster distance R0 of 52.4 Å ([17]), this corresponds to FRET value of 0.07, a sufficient signal for a biosensor platform. To design a system most compatible for large production and eventual screening of 50,000+ compound libraries, we used HEK293-6E cells, a suspension cell line that yields greater levels (>threefold) of recombinant protein expression ([18], [19]).
With a constant amount of GFP-ABD-L253P expressed, increased Lifeact-mCherry expression increases FRET with an exponential plateau to 0.12 (Fig. 2A). To measure the nonspecific component of our FRET readout, we concurrently tested expression of mCherry in place of Lifeact-mCherry. For comparison, the Lifeact-mCherry and mCherry fluorescence intensity values (normalized to 1:1 GFP-ABD:Lifeact-mCherry sample) are plotted on the X-axis for samples transfected with different donor-to-acceptor DNA ratios. […] With the trade-off between high FRET and minimal nonspecific FRET, the donor:acceptor ratio 1:2 was chosen for the experiments that followed (Fig. 2A). […] Of note, we also tested the biosensor using WT-ABD, which yielded substantially lower FRET (Fig. S1), consistent with the 1000-fold decrease in affinity of WT-ABD for actin ([10]). We proceeded to test the compatibility of the GFP-ABD-L253P and Lifeact-mCherry assay for primary compound screening and the GFP-ABD-L253P and mCherry assay as a potential high-throughput counter screen.
To test the performance of the assay in HTS, the 1280 LOPAC compounds, together with 256 DMSO controls, were dispensed in 5 nl volumes into individual wells of 1536-well microplates and stored at −20 °C until use. To test the reproducibility of replicate screens on the same day, a single batch of HEK293 cells was transfected with GFP-ABD-L253P and Lifeact-mCherry. In addition, control cells were transfected with only GFP-ABD-L253P, to determine compound effect on donor-only lifetime (τD). To test reproducibility of the screens across different days, identical transfections were performed on another batch of HEK293-6E cells on a second day. Following plate thaw, 5 μl of assay cells were loaded in each well via a multidrop liquid dispenser, and a time course of compound effects (at 20, 120, and 180 min post load) on fluorescence lifetime was acquired using a fluorescence lifetime plate reader (FLT-PR). This technology has been advanced to high-density 1536-well plates in recent years for successful HTS using a range of protein biosensors including sarcoplasmic reticulum Ca-ATPase ([24], [25], [26], [27]), ryanodine receptor ([23], [28]), actin ([20]), tumor necrosis factor receptor 1 ([29], [30]), and tau ([31]).
At 2 × 10^6 cells/ml, HEK293-6E cells were transfected with GFP-ABD-L253P or GFP-ABD-WT (2.4 μg), Lifeact-mCherry (2.4–16.8 μg), mCherry (1.2–16.8 μg), and/or pTT5 (0.8–17.6 μg), as indicated, using the 293fectin protocol (Thermo Fisher Scientific) with 20 μg total DNA. Cells were transfected with either GFP-ABD-L253P or –WT, but coexpression of the WT and mutant isoform was not explored in this study. The cells were harvested 24 h later by centrifugation at 100g for 5 min and then washed twice with PBS. […]

Series [2] addresses T2, Lifeact-mCherry binding to actin (Oryctolagus cuniculus, UniProt P68135).
T2 construct: from tissue; host or cells: actin: rabbit psoas muscle; Lifeact-mCherry: made in house in E. coli (pE-SUMOpro)
Nature of the series: F-actin and Lifeact-mCherry cosedimentation assay. The conditions noted are these: for Effect on actin-Lifeact cosedimentation: 10 μM Hit compound. As for the experimental part:
(§1) Actin was purified from acetone powder derived from the psoas muscle of New Zealand white rabbit (Oryctolagus cuniculus) ([46]). Filamentous (F)-actin was stored for up to 3 days on ice before use in binding assays. Within an hour of the binding assay, the F-actin was clarified at 100,000g at 4 °C for 10 min prior to setting up binding assays. The L253P β-III-spectrin ABD was expressed in E. coli BL21(DE3) (Novagen). The ABD was purified and the His-SUMO tag proteolytically removed, as previously described ([14]), except size-exclusion chromatography was not performed due to the high purity of the ABD protein. Lifeact-mCherry protein was similarly prepared. A Bradford assay was performed to determine clarified F-actin and ABD protein concentrations.
(§2) F-actin and ABD binding assays were performed as previously described ([10]). In brief, binding assays used 1 μM ABD protein, 1 μM F-actin, and 1 to 50 μM compound (as indicated) or DMSO control for a total reaction volume of 60 μl in F-buffer containing 10 mM Tris, pH 7.5, 150 mM NaCl, 0.5 mM ATP, 2 mM MgCl2, and 1 mM DTT. Following 30 min incubation at room temperature (21 °C). F-actin was pelleted using centrifugation at 100,000g at 25 °C for 30 min. Unbound ABD in the supernatant was measured following SDS-PAGE and Coomassie blue staining in accord ([10]). In addition, control cosedimentations assays that lacked actin were performed to test if compounds cause ABD aggregation. F-actin and Lifeact-mCherry binding assays were undertaken with 2 μM Lifeact-mCherry, 30 μM F-actin, and 1 to 50 μM compound (as indicated) or DMSO control for a total reaction volume of 80 μl in F-buffer. For a no-actin binding control, an assay sample with no F-actin was also set up. Binding reactions were allowed to reach equilibrium at room temperature (21 °C) for 30 min, and then F-actin was pelleted by centrifugation at 100,000g at 25 °C for 30 min. The amount of unbound Lifeact-mCherry was sampled by loading 7 μl of spin supernatant on a low-volume black bottom 384-well plate (Greiner). Amount of mCherry was determined by acquiring fluorescence spectrum peak intensity at ∼600 nm using a spectral unmixing plate reader (Fluorescence Innovations, Inc) equipped with a 532 nm laser (Laserglow Technologies, Ontario, Canada) for excitation, 532 nm long-pass filter for emission, and PMT for emission detection. The fraction of Lifeact-mCherry bound to F-actin was determined by subtracting from one the fraction of supernatant fluorescence intensity relative to the no-actin control sample:(3) Lifeactboundfraction=1−Fcompound/DMSO/FNo−actin where Fcontrol/DMSO is the peak mCherry fluorescence of assay samples containing compound or DMSO control, and Fno-actin is the peak mCherry fluorescence of assay samples that contained no F-actin.

The test system of the next series is HEK293-6E cells. Nature of the series: Trypan blue cell viability assay. In kind it is cell-based. The procedure:
HEK293-6E cell viability was measured using trypan blue (0.03%) staining and a Countess Automated Cell counter (Invitrogen). Nontransfected HEK293-6E cells were spun at 100g for 5 min at 21 °C and resuspended in 10 ml of PBS. The centrifugation and resuspension were repeated twice more. Final cell concentration was 1 × 10^6 cells/ml. Cells were incubated with 2% DMSO or 3 to 50 μM compound (as indicated) for 3 h at room temperature (21 °C). After addition of 100 μl of 0.06% trypan blue solution in PBS, 10 μl was loaded on a slide and injected into the cell counter, and cell viability was measured.

The test system of the next series is mammalian cells. The conditions noted are these: cited from earlier work.
Another series deals with T3, ABD L253P (Homo sapiens, UniProt O15020, L253P).
T3 construct: the β-III-spectrin (human) ABD residues 1 to 284; His-SUMO (cleaved yes); made in house; host or cells: E. coli BL21(DE3), vector pE-SUMOpro
T3 sequence (O15020 1-284 L253P): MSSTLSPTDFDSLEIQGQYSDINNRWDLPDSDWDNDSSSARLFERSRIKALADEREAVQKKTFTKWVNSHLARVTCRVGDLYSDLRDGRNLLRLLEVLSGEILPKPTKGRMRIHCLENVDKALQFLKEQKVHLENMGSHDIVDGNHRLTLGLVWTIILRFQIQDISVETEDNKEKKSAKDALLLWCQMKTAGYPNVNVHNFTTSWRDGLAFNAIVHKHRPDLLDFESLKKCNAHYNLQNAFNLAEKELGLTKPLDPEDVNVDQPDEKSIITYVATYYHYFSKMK
Nature of the series: Sedimentation of ABD L253P without actin (aggregation). The conditions noted are these: 10 μM Hit compound, n = 4. As for the experimental part: In addition to a reduction in cell viability, the primary and counter screen may be sensitive to compounds that promote ABD-L253P protein aggregation. […] Our assay measuring ABD-L253P cosedimentation with actin is not sensitive to ABD aggregation, as it is designed to work under conditions where ∼90% ABD-L253P cosediments with actin. Nevertheless, we repeated these measurements in the absence of actin.
as §2

Series [3] has as its target T4, ABD-L253P binding to actin (Homo sapiens, UniProt O15020, L253P).
T4 construct: the β-III-spectrin (human) ABD residues 1 to 284; His-SUMO (cleaved yes); made in house; host or cells: E. coli BL21(DE3), vector pE-SUMOpro; actin from rabbit psoas muscle tissue
Put plainly: F-actin and ABD cosedimentation assay. The conditions noted are these: 3 μM swinholide A, 50 μM tegaserod; n = 4. As for the experimental part:
as §1, §2

The target of the next series is actin filaments. The conditions noted are these: read-out: Affinity for actin; cited from earlier work.
Setting [4] is: 10 μM Hit compound, 3 h incubation.

T1 sequence (O15020 1-284 L253P): as above
T4 sequence (O15020 1-284 L253P): as above

Regarding `CCCCCCCCCCCCCCCC(=O)OC(CC(=O)[O-])C[N+](C)(C)C` (racemic) [palmitoyl-DL-carnitine], the “Effect of Hit compound on primary FRET” value in series [1] was “decrease FRET”. Besides, the “Effect on actin-Lifeact cosedimentation” value in series [2] was “decreased”. The “Effect on HEK293-6E cell viability” value in the series with HEK293-6E cells (setting [4]) is on record as “dramatically reduced”. Further, in the series with mammalian cells, the “Effect on cell viability in mammalian cells” value is given as “reduce cell viability”.
Consider `CC(C)(Sc1ccc(CCN(CCCCC2CCCCC2)C(=O)NC2CCCCC2)cc1)C(=O)O` [GW7647], for which the “Effect of Hit compound on primary FRET” value in series [1] is “decrease FRET”. For the same molecule, in series [2], the “Effect on actin-Lifeact cosedimentation” value is “decreased”. Besides, the “Effect on HEK293-6E cell viability” value in the series on HEK293-6E cells (setting [4]) is “dramatically reduced”. Moreover, the “Effect on ABD pelleting without actin (aggregation)” value on ABD L253P is listed as “promote aggregation”.
On to `CCCc1c(-c2ccc(O)cc2)nn(-c2ccc(O)cc2)c1-c1ccc(O)cc1` [PPT], for which, in series [1], the “Effect of Hit compound on primary FRET” value was “decrease FRET”. At ABD L253P, the “Effect on ABD pelleting without actin (aggregation)” value is on record as “trend toward increasing”.
`Clc1ccc(C(c2ccc(Cl)cc2)n2cc[n+](CC(OCc3ccc(Cl)cc3Cl)c3ccc(Cl)cc3Cl)c2)cc1` (centres unmarked) [calmidazolium]: the “Effect of Hit compound on primary FRET” value in series [1] is given as “decrease FRET”. For the same molecule, in series [2], the “Effect on actin-Lifeact cosedimentation” value is listed as “decreased”. Besides, the “Effect on HEK293-6E cell viability” value in the series with HEK293-6E cells (setting [4]) is given as “dramatically reduced”. The “Effect on cell viability in mammalian cells” value with mammalian cells is listed as “reduce cell viability”.
Turning to `Cc1cc2c(C(C)C)c(O)c(O)c(C=O)c2c(O)c1-c1c(C)cc2c(C(C)C)c(O)c(O)c(C=O)c2c1O` [gossypol], the “Effect of Hit compound on primary FRET” value in series [1] is recorded as “decrease FRET”. Moreover, the “Effect on ABD pelleting without actin (aggregation)” value on ABD L253P is listed as “promote aggregation”. Further, the “Reduction of cell viability” value with mammalian cells (10 μM ref 36, 37, 38) is less than 10%.
Regarding `[H]/N=C(/NCCCCC)N/N=C/c1c[nH]c2ccc(OC)cc12` [tegaserod], the “Reduction of Total FRET in primary FRET assay” value in series [1] (50 μM tegaserod, relative to DMSO) is > 50% and 83%. Moreover, the “Effect on ABD-L253P cosedimentation with actin” value in series [3] is given as “no significant effect”. In series [2] (3 μM swinholide A, 50 μM tegaserod), the “Effect on Lifeact-mCherry cosedimentation with actin” value is given as “did not alter”. Moreover, the “Effect on HEK293-6E cell viability” value in the series with HEK293-6E cells (3 μM swinholide A, 50 μM tegaserod, 3 h) is “greatly diminished”. In addition, the “Decrease in cell viability” value in the series with HEK293-6E cells (50 μM tegaserod, 3 h) is recorded as 92%.
As to “GFP-ABD-L253P: green fluorescent protein fused to N terminus of the mutant β-III-spectrin ABD (L253P); FRET donor”, on actin filaments, the Kd is 75 nM.
